Like-named read-outs stand apart in the source and are kept apart here.
Molecular target: T1, δ-opioid receptor (Mus musculus, UniProt P32300)
T1 construct: from tissue; host or cells: vas deferens of male ddy mice
Experiment: δ-opioid antagonist activity against DPDPE in mouse vas deferens (MVD)
Settings: for Ratio of IC50 Values: DPDPE IC50 with/without 100 nM test compound; for Ratio of IC50 Values / Kb: 20 min; for Kb: against DPDPE, test compound 100 nM
Description: Using mouse vas deferens (MVD), the antagonist activity against DPDPE which is a δ-opioid agonist was checked.
In this experiment, ddy male mice were used. In a Magnus' tube which is filled with Krebes-Henseleit solution (NaCl […]; KCl 4.7 mM; CaCl2 2.5 mM; KH2 PO4 1.1 mM; NaHCO3 25 mM; glucose 11 mM) kept at 37° C., and into which an atmosphere consisting of 5% carbon dioxide and 95% oxygen was flown, vas deferens taken from the animals was suspended. Electric stimulation was applied through ring-shaped platinum electrodes mounted on the upper and lower portions of the tube at a frequency of 0.1 Hz and 5.0 mS duration. The contraction of the tissue was recorded on polygraph using isometric transducer.
Then 100 nM of the test compound was added. Twenty minutes later, DPDPE was begun to be added cumulatively. The ratio of IC50 values in the presence and absence of the test compound, Ke value (the molar concentration of the test compound necessary for translating the dose-effect curve to the curve of twice dose) and pA2 value were determined. The pA2 value was determined by the method of Shild et al (Shild, H. O., Br. J. Pharmac. Chamotehr., 4, 277 (1949)). That is, the logarithm of the test compound (log[test compound]) was plotted along the abscissa and the logarithm of the value obtained by subtracting 1 from the ratio of IC50 values was plotted in the presence and absence of the test compound [log(dose ratio-1)] along the ordinate. The pA2 value was determined from the value on the abscissa when the value on the ordinate of the obtained line is 0.

T1 sequence (P32300 whole entry): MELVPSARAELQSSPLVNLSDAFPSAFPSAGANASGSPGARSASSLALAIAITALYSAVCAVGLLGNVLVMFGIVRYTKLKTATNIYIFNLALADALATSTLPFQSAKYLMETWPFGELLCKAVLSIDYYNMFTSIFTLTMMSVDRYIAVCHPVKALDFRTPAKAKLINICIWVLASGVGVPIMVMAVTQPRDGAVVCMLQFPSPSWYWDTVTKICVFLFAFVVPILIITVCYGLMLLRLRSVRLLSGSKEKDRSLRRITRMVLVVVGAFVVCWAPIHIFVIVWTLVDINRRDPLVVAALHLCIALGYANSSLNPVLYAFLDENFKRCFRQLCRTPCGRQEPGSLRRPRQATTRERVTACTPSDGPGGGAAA

| Structure (SMILES) | Ratio of IC50 Values | Kb (read-out: Ke) | Kb (read-out: pA2 (converted)) | δ-antagonist activity relative to NTI (times that of NTI) |
| --- | --- | --- | --- | --- |
| O=C(NCC1CC1)c1cccc2[nH]c3c(c12)C[C@@]1(O)[C@H]2Cc4ccc(O)c5c4[C@@]1(CCN2CC1CC1)[C@H]3O5 [Compound 46, 17-cyclopropylmethyl-6,7-didehydro-4,5α-epoxy-3,14β-dihydroxy-4'-(N-cyclopropylmethylcarbamoyl)-6,7-2',3'-indolomorphinan] | 1.39 | 256 nM | – | – |
| C=CCN1CC[C@]23c4c5ccc(O)c4O[C@H]2c2[nH]c4cc(C(=O)OC)ccc4c2C[C@@]3(O)[C@H]1C5 [Compound 115, 17-allyl-6,7-didehydro-4,5α-epoxy-3,14β-dihydroxy-6'-methoxycarbonyl-6,7-2',3'-indolomorphinan] | 75.4 | 1.34 nM | – | – |
| COC(=O)c1cccc2[nH]c3c(c12)C[C@@]1(O)[C@H]2Cc4ccc(O)c5c4[C@@]1(CCN2CC1CC1)[C@H]3O5 [Compound 76, 17-cyclopropylmethyl-6,7-didehydro-4,5α-epoxy-3,14β-dihydroxy-4'-methoxycarbonyl-6,7-2',3'-indolomorphinan] | 6.82 | 17.2 nM | – | – |
| OCCc1ccc2c3c([nH]c2c1)[C@@H]1Oc2c(O)ccc4c2[C@@]12CCN(CC1CC1)[C@H](C4)[C@]2(O)C3 [Compound 41, 17-cyclopropylmethyl-6,7-didehydro-4,5α-epoxy-3,14β-dihydroxy-6'-(2-hydroxyethyl)-6,7-2',3'-indolomorphinan] | 22.1 | 4.74 nM | – | – |
| CN(C)S(=O)(=O)c1ccc2c3c([nH]c2c1)[C@@H]1Oc2c(O)ccc4c2[C@@]12CCN(CC1CC1)[C@H](C4)[C@]2(O)C3 [Compound 51, 17-cyclopropylmethyl-6,7-didehydro-4,5α-epoxy-3,14β-dihydroxy-6'-(N,N-dimethylsulfamoyl)-6,7-2',3'-indolomorphinan] | 33.2 | 3.11 nM | 2.69 nM | – |
| Oc1ccc2c3c1O[C@H]1c4[nH]c5ccc(I)cc5c4C[C@@]4(O)[C@@H](C2)N(CC2CC2)CC[C@]314 [Compound 1, 17-cyclopropylmethyl-6,7-didehydro-4,5α-epoxy-3,14β-dihydroxy-5'-iodo-6,7-2',3'-indolomorphinan] | 8.88 | 12.7 nM | – | – |
| N#Cc1ccc2[nH]c3c(c2c1)C[C@@]1(O)[C@H]2Cc4ccc(O)c5c4[C@@]1(CCN2CC1CC1)[C@H]3O5 [Compound 8, 17-cyclopropylmethyl-6,7-didehydro-4,5α-epoxy-3,14β-dihydroxy-5'-cyano-6,7-2',3'-indolomorphinan] | 3.60 | 38.5 nM | – | – |
| Oc1ccc2c3c1O[C@H]1c4[nH]c5ccc(OC(F)(F)F)cc5c4C[C@@]4(O)[C@@H](C2)N(CC2CC2)CC[C@]314 [Compound 4, 17-cyclopropylmethyl-6,7-didehydro-4,5α-epoxy-3,14β-dihydroxy-5'-trifluoromethoxy-6,7-2',3'-indolomorphinan] | 7.95 | 14.4 nM | – | – |
| Oc1ccc2c3c1O[C@H]1c4[nH]c5c(ccc6cnccc65)c4C[C@@]4(O)[C@@H](C2)N(CC2CC2)CC[C@]314 [Compound 156, 17-cyclopropylmethyl-3,14β-dihydroxy-4,5α-epoxy-6,7-didehydromorphinano[6,7-b]pyrido[4,3-g]indole] | 26.6 | 3.91 nM | – | – |
| NS(=O)(=O)c1ccc2[nH]c3c(c2c1)C[C@@]1(O)[C@H]2Cc4ccc(O)c5c4[C@@]1(CCN2CC1CC1)[C@H]3O5 [Compound 5, 17-cyclopropylmethyl-6,7-didehydro-4,5α-epoxy-3,14β-dihydroxy-5'-sulfamoyl-6,7-2',3'-indolomorphinan] | 4.36 | 29.8 nM | – | – |
| COC(=O)c1ccc2c3c([nH]c2c1)[C@@H]1Oc2c(O)ccc4c2[C@@]12CCN(CC1CC1)[C@H](C4)[C@]2(O)C3 [Compound 77, 17-cyclopropylmethyl-6,7-didehydro-4,5α-epoxy-3,14β-dihydroxy-6'-methoxycarbonyl-6,7-2',3'-indolomorphinan] | 742 | 0.13 nM | – | 1.3-1.6 times |
| C=CCN1CC[C@]23c4c5ccc(O)c4O[C@H]2c2[nH]c4cccc(C(=O)OC)c4c2C[C@@]3(O)[C@H]1C5 [Compound 114, 17-allyl-6,7-didehydro-4,5α-epoxy-3,14β-dihydroxy-4'-methoxycarbonyl-6,7-2',3'-indolomorphinan] | 20.7 | 5.08 nM | – | – |
| CS(=O)(=O)c1ccc2c3c([nH]c2c1)[C@@H]1Oc2c(O)ccc4c2[C@@]12CCN(CC1CC1)[C@H](C4)[C@]2(O)C3 [Compound 188, 17-cyclopropylmethyl-6,7-didehydro-4,5α-epoxy-3,14β-dihydroxy-6'-methylsulfonyl-6,7-2',3'-indolomorphinan] | 56.0 | 1.82 nM | – | – |
| CCOC(=O)Cc1ccc2c3c([nH]c2c1)[C@@H]1Oc2c(O)ccc4c2[C@@]12CCN(CC1CC1)[C@H](C4)[C@]2(O)C3 [Compound 49, 17-cyclopropylmethyl-6,7-didehydro-4,5α-epoxy-3,14β-dihydroxy-6'-ethoxycarbonylmethyl-6,7-2',3'-indolomorphinan] | 27.8 | 3.73 nM | – | – |
| CS(=O)(=O)c1ccc2[nH]c3c(c2c1)C[C@@]1(O)[C@H]2Cc4ccc(O)c5c4[C@@]1(CCN2CC1CC1)[C@H]3O5 [Compound 6, 17-cyclopropylmethyl-6,7-didehydro-4,5α-epoxy-3,14β-dihydroxy-5'-methylsulfonyl-6,7-2',3'-indolomorphinan] | 12.6 | 8.62 nM | – | – |
| CCOC(=O)Cc1cccc2[nH]c3c(c12)C[C@@]1(O)[C@H]2Cc4ccc(O)c5c4[C@@]1(CCN2CC1CC1)[C@H]3O5 [Compound 48, 17-cyclopropylmethyl-6,7-didehydro-4,5α-epoxy-3,14β-dihydroxy-4'-ethoxycarbonylmethyl-6,7-2',3'-indolomorphinan] | 5.88 | 20.5 nM | – | – |
| CS(=O)(=O)c1cccc2c3c([nH]c12)[C@@H]1Oc2c(O)ccc4c2[C@@]12CCN(CC1CC1)[C@H](C4)[C@]2(O)C3 [Compound 190, 17-cyclopropylmethyl-6,7-didehydro-4,5α-epoxy-3,14β-dihydroxy-7'-methylsulfonyl-6,7-2',3'-indolomorphinan] | 698 | 0.14 nM | – | 1.3-1.6 times |
| CCOC(=O)c1ccc2[nH]c3c(c2c1)C[C@@]1(O)[C@H]2Cc4ccc(O)c5c4[C@@]1(CCN2CC1CC1)[C@H]3O5 [Compound 3, 17-cyclopropylmethyl-6,7-didehydro-4,5α-epoxy-3,14β-dihydroxy-5'-ethoxycarbonyl-6,7-2',3'-indolomorphinan] | 5.34 | 23 nM | – | – |
| Oc1ccc2c3c1O[C@H]1c4[nH]c5c(C(F)(F)F)cccc5c4C[C@@]4(O)[C@@H](C2)N(CC2CC2)CC[C@]314 [Compound 118, 17-cyclopropylmethyl-6,7-didehydro-4,5α-epoxy-3,14β-dihydroxy-7'-trifluoromethyl-6,7-2',3'-indolomorphinan] | 52.9 | 1.93 nM | – | – |
| O=[N+]([O-])c1ccc2c3c([nH]c2c1)[C@@H]1Oc2c(O)ccc4c2[C@@]12CCN(CC1CC1)[C@H](C4)[C@]2(O)C3 [Compound 79, 17-cyclopropylmethyl-6,7-didehydro-4,5α-epoxy-3,14β-dihydroxy-6'-nitro-6,7-2',3'-indolomorphinan] | 60.6 | 1.68 nM | – | – |
| OCCc1cccc2[nH]c3c(c12)C[C@@]1(O)[C@H]2Cc4ccc(O)c5c4[C@@]1(CCN2CC1CC1)[C@H]3O5 [Compound 40, 17-cyclopropylmethyl-6,7-didehydro-4,5α-epoxy-3, 14β-dihydroxy-4'-(2-hydroxyethyl)-6,7-2',3'-indolomorphinan] | 4.60 | 27.8 nM | – | – |

— patent publication US6291470A, “Indole derivatives process for producing the same and medicinal uses of the same” (Toray Industries, Inc., priority 1992, dated 2001)
